Laboratory results published in US7138231B2 (priority 2000, dated 2006).
Entries after “also recorded” stand apart in the source; their conditions may differ. Where two headings read alike, the source gives them in different places.

Legend:
[1] = test system: HIV-1 protease site-directed mutants (N88S, L63P, V77I, M46L) in resistance test vector; assay: Phenotypic susceptibility assay of resistance test vectors with site-directed mutations in PR
Description: The resistance test vectors containing a functional luciferase gene cassette were constructed and host cells were transfected with the resistance test vector DNA. […] The resistance test vector viral particles produced by transfecting the resistance test vector DNA into host cells, either in the presence or absence of protease inhibitors, were used to infect target host cells grown either in the absence of NRTI or NNRTI or in the presence of increasing concentrations of the drug. Luciferase activity in infected target host cells in the presence of drug was compared to the luciferase activity in infected target host cells in the absence of drug. […] The IC50 values were determined by plotting percent drug inhibition vs. log10 drug concentration.
Host cells were seeded in 10-cm-diameter dishes and were transfected one day after plating with resistance test vector plasmid DNA and the envelope expression vector. Transfections were performed using a calcium-phosphate co-precipitation procedure. The cell culture media containing the DNA precipitate was replaced with fresh medium, from one to 24 hours, after transfection. Cell culture media containing resistance test vector viral particles was harvested one to four days after transfection and was passed through a 0.45-mm filter before being stored at −80° C. HIV capsid protein (p24) levels in the harvested cell culture media were determined by an EIA method as described by the manufacturer (SIAC; Frederick, Md.). Before infection, target cells (293 and 293/T) were plated in cell culture media. Control infections were performed using cell culture media from mock transfections (no DNA) or transfections containing the resistance test vector plasmid DNA without the envelope expression plasmid. One to three or more days after infection the media was removed and cell lysis buffer (Promega) was added to each well. Cell lysates were assayed for luciferase activity. The inhibitory effect of the drug was determined using the following equation: % luciferase inhibition=[1−(RLUluc[drug]RLUluc)]×100 where RLUluc [drug] is the relative light unit of luciferase activity in infected cells in the presence of drug and RLUluc is the Relative Light Unit of luciferase activity in infected cells in the absence of drug. IC50 values were obtained from the sigmoidal curves that were generated from the data by plotting the percent inhibition of luciferase activity vs. the log10 drug concentration.
Mutations are introduced into the resistance test vector through any of the widely known methods for site-directed mutagenesis. […] A resistance test vector containing the specific mutation or group of mutations are then tested using the phenotypic susceptibility assay described above and the susceptibility profile is compared to that of a genetically defined wild-type (drug susceptible) resistance test vector which lacks the specific mutations.
Resistance test vectors were constructed containing the N88S mutation alone and in combination with other substitutions in PR (L63P, V77I and M46L) known to modulate the HIV susceptibility to PRIs. Mutations were introduced into the resistance test vector using the mega-primer PCR method for site-directed mutagenesis.

[2] = test system: HIV-1 protease mutants (I50V, M46I/I47V/I50V, L10F, M46I, I47V); conditions: single mutants L10F, M46I, and I47V; cited from earlier work
[3] = target: HIV-1 protease mutants (I50V, M46I/I47V/I50V, L10F, M46I, I47V) (Human immunodeficiency virus type 1 group M subtype B, UniProt P04585, I535V/I538V/M534I); conditions: triple mutant M46I/I47V/I50V; cited from earlier work
[4] = target: HIV-1 protease mutants (I50V, M46I/I47V/I50V, L10F, M46I, I47V) (Human immunodeficiency virus type 1 group M subtype B, UniProt P04585, I538V); conditions: I50V single-mutant protease; cited from earlier work
[5] = test system: HIV-1 patient-derived protease and reverse transcriptase segments (N88S in PR) in resistance test vectors; assay: Phenotypic drug susceptibility test with resistance test vectors from patient samples; type: cell-based; conditions: for Fold Change vs. reference: N88S
[6] = test system: HIV-1; conditions: cited from earlier work
[7] = test system: HIV-1 patient viruses with protease L90M; assay: Phenotypic susceptibility profiles of 333 patient virus samples with L90M (not 30 or 50); type: cell-based
[8] = test system: HIV-2; conditions: cited from earlier work
[9] = test system: HIV-1 patient viruses with protease L90M; assay: Phenotypic susceptibility profiles of 58 patient virus samples with L90M, no other primary mutations; type: cell-based; conditions: {}
[10] = test system: HIV-1 variants with protease substitutions; conditions: cited from earlier work

CC(C)CN(C[C@@H](O)[C@H](Cc1ccccc1)NC(=O)O[C@H]1CCOC1)S(=O)(=O)c1ccc(N)cc1 [amprenavir]
change in susceptibility compared to wild type control RTV ([1]; L63P-N88S-RTV): increase in the susceptibility | change in susceptibility compared to wild type control RTV ([1]; L63P-V77I-N88S-RTV): increase in the susceptibility; also recorded: increased susceptibility | change in susceptibility compared to wild type control RTV ([1]; M46L-L63P-N88S-RTV): increase in the susceptibility | change in susceptibility compared to wild type control RTV ([1]; M46L-L63P-V77I-N88S-RTV): increase in the susceptibility | change in susceptibility compared to wild type control RTV ([1]; N88S-RTV): more susceptible | Fold Change vs. reference ([1]; site-directed mutation N88S): 0.04 fold | Fold Change vs. reference ([1]; site-directed mutations L63P): 1.06 fold | Fold Change vs. reference ([1]; site-directed mutations L63P, N88S): 0.11 fold | Fold Change vs. reference ([1]; site-directed mutations L63P, V77I): 0.91 fold | Fold Change vs. reference ([1]; site-directed mutations L63P, V77I, N88S): 0.08 fold | Fold Change vs. reference ([1]; site-directed mutations M46L, L63P, N88S): 0.12 fold | Fold Change vs. reference ([1]; site-directed mutations M46L, L63P, V77I, N88S): 0.14 fold | affinity [2]: did not display reduced affinity | fold-reduced Kl compared to wild-type enzyme [3]: 270 fold | fold reduction in the inhibition constant (Kl) compared to wild-type enzyme [4]: 80 fold | Fold Change vs. reference ([5]; patient sample 360, prior PRI IDV, PR I13V, K20M, M36V, N37A, M46I, I62V, L63P, I93L): 0.15 fold | Fold Change vs. reference ([5]; patient sample 627, prior PRI IDV, PR I13I/V, E35D, M46L, L63P, I64V, I73V): 0.09 fold | Fold Change vs. reference ([5]; patient sample 0732, prior PRI NFV, PR K14R, I15V, K20T, E35D, M36I, R41K, I62V, L63Q): 0.08 fold | Fold Change vs. reference ([5]; patient sample 0910, prior PRI NFV, PR M46I, L63P, V77I, I93I/L): 0.16 fold | Fold Change vs. reference ([5]; patient sample 1208, prior PRI NFV, PR I62V, L63P, V77I): 0.10 fold | Fold Change vs. reference ([5]; patient sample 3542, prior PRI IDV, PR I13V, K14R, N37D, M46I, L63P, I93L): 0.16 fold | Fold Change vs. reference ([5]; patient sample 3654, PR I13V, R41K, M46I, L63P, V77I, I93L): 0.20 fold | change in susceptibility ([5]; patient sample RTV-360): increase | change in susceptibility ([5]; patient sample RTV-627): increase | change in susceptibility ([5]; patient sample RTV-0732): increase; also recorded: increased susceptibility | change in susceptibility ([5]; patient sample RTV-0910): increase | change in susceptibility ([5]; patient sample RTV-1208): increase | change in susceptibility ([5]; patient sample RTV-3542): increase | change in susceptibility ([5]; patient sample RTV-3654): increase | IC50 ([6]; read-out: IC50): 80 nM | IC50 ([6]; read-out: mean IC50): 12 nM | wt % > 2.5 ([7]; Amprenavir FC>2.5, L90M, position 10 wild type): 30.8% | wt % > 2.5 ([7]; Amprenavir FC>2.5, L90M, position 15 wild type): 63.6% | wt % > 2.5 ([7]; Amprenavir FC>2.5, L90M, position 33 wild type): 57.4% | wt % > 2.5 ([7]; Amprenavir FC>2.5, L90M, position 36 wild type): 55.3% | wt % > 2.5 ([7]; Amprenavir FC>2.5, L90M, position 46 wild type): 46.2% | wt % > 2.5 ([7]; Amprenavir FC>2.5, L90M, position 53 wild type): 57.6% | wt % > 2.5 ([7]; Amprenavir FC>2.5, L90M, position 54 wild type): 47.5% | wt % > 2.5 ([7]; Amprenavir FC>2.5, L90M, position 58 wild type): 58.7% | wt % > 2.5 ([7]; Amprenavir FC>2.5, L90M, position 62 wild type): 55.3% | wt % > 2.5 ([7]; Amprenavir FC>2.5, L90M, position 74 wild type): 62.5% | wt % > 2.5 ([7]; Amprenavir FC>2.5, L90M, position 82 wild type): 53.5% | wt % > 2.5 ([7]; Amprenavir FC>2.5, L90M, position 84 wild type): 48.5% | wt % > 2.5 ([7]; Amprenavir FC>2.5, L90M, position 89 wild type): 59.3% | wt % > 2.5 ([7]; Amprenavir FC>2.5, L90M, position 92 wild type): 58.6% | wt % > 2.5 ([7]; Amprenavir FC>2.5, L90M, position 95 wild type): 58.7% | mt % > 2.5 ([7]; Amprenavir FC>2.5, listed as 90: all samples with L90M): 60.4% | wt % > 10 ([7]; Amprenavir FC>10, L90M, position 10 wild type): 2.6% | wt % > 10 ([7]; Amprenavir FC>10, L90M, position 13 wild type): 10.9% | wt % > 10 ([7]; Amprenavir FC>10, L90M, position 32 wild type): 11.7% | wt % > 10 ([7]; Amprenavir FC>10, L90M, position 33 wild type): 8.4% | wt % > 10 ([7]; Amprenavir FC>10, L90M, position 46 wild type): 8.3% | wt % > 10 ([7]; Amprenavir FC>10, L90M, position 47 wild type): 11.9% | wt % > 10 ([7]; Amprenavir FC>10, L90M, position 53 wild type): 11.5% | wt % > 10 ([7]; Amprenavir FC>10, L90M, position 54 wild type): 5.9% | wt % > 10 ([7]; Amprenavir FC>10, L90M, position 55 wild type): 11.6% | wt % > 10 ([7]; Amprenavir FC>10, L90M, position 66 wild type): 11.9% | wt % > 10 ([7]; Amprenavir FC>10, L90M, position 69 wild type): 14.2% | wt % > 10 ([7]; Amprenavir FC>10, L90M, position 84 wild type): 8.7% | % > 10 ([7]; Amprenavir FC>10, listed as 90: all samples with L90M): 12.9% | Percent of viruses with indicated primary mutation(s) with reduced susceptibility (fold change in IC50 > 2.5) ([7]; L90M): 60.4% | Percent of viruses with indicated primary mutation(s) with reduced susceptibility (fold change in IC50 > 10) ([7]; L90M): 12.9% | IC50 [8]: 340 nM | Percent of viruses with indicated primary mutation(s) which are drug sensitive (fold change in IC50 < 2.5) [9]: 65.5% | decrease in susceptibility ([10]; I50V as a single mutation): two- to threefold | resistance of selected variants ([10]; in vitro passage, L10F, M46I, I47V, I50V): 100 fold | change in susceptibility ([10]; other substitutions as single mutations in HXB2): did not result in reduced susceptibility | fold less susceptible than wild-type virus ([10]; triple mutant clone M46I, I47V, I50V): 20 fold
